The record followed here is patent US12692262B2, “Substituted ureas as orexin receptor agonists” (Merck Sharp & Dohme LLC, priority 2020, dated 2026).

The structures appear in SMILES notation. pEC50: −log10 of the molar value.

The target in the test is T1, human OX2R (Homo sapiens, UniProt O43614).
T1 construct: expressed in transfected cells; host or cells: CHO (Chinese hamster ovary) cells grown under G418 selection
T1 sequence (O43614 1-444): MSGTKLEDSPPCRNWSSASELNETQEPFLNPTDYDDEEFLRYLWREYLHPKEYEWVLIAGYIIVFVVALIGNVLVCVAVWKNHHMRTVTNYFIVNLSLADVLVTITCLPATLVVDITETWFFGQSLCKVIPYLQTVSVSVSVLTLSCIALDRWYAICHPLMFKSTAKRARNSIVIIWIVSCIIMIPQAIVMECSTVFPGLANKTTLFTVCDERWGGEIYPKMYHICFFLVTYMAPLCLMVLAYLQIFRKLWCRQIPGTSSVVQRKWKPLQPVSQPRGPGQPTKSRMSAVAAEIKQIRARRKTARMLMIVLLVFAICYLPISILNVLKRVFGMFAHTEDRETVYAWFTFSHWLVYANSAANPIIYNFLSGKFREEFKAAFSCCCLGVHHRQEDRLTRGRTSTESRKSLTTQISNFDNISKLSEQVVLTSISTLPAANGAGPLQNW
Kind of test: IPOne (IP-1 accumulation) assay in CHO cells expressing human OX2R. The settings on record: for pEC50: CHO cells expressing human OX2R, IP-One assay, 2 h incubation, four parameter logistic fit, read-out: OX2R Potency, EC50; for % of maximum agonist effect (relative to Orexin A): percent effect vs mean max effect of a reference compound at 1 uM (100% activity vs Orexin A), human OX2R. It is filed as cell-based. In a few lines:
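Agonist EC50 values come from the inflection point of four-parameter logistic curves. Read-out is IP-1 accumulation detected with lysis buffer plus D2 and AB-cryptate reagents (HTRF), in CHO cells engineered to express human OX2R.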

For `CCc1nc(-c2cc([C@H](N(CC)C(=O)N[C@@H](CCC(F)(F)F)C(F)(F)F)C(F)(F)F)ncc2OC)cn2ccnc12` [Example 9-2, 1-ethyl-1-((S)-1-(4-(8-ethylimidazo[1,2-a]pyrazin-6-yl)-5-methoxypyridin-2-yl)-2,2,2-trifluoroethyl)-3-((S)-1,1,1,5,5,5-hexafluoropentan-2-yl)urea], the pEC50 was 8.26 and the “% of maximum agonist effect (relative to Orexin A)” value is 100.5%.
`CCN(C(=O)N[C@@H](CCC(F)(F)F)C(F)(F)F)[C@@H](c1cc(-c2nc(OC)c3nccn3c2C)c(OC)cn1)C(F)(F)F` [Example 9-3, 1-ethyl-3-((S)-1,1,1,5,5,5-hexafluoropentan-2-yl)-1-((S)-2,2,2-trifluoro-1-(5-methoxy-4-(8-methoxy-5-methylimidazo[1,2-a]pyrazin-6-yl)pyridin-2-yl)ethyl)urea]: the pEC50 was 8.21 and the “% of maximum agonist effect (relative to Orexin A)” value is 100.7%.
For `CCN(C(=O)N[C@@H](CCC(F)(F)F)C(F)(F)F)[C@H](C)c1cc(-c2cc(OC)c3ncoc3c2)c(OC)cn1` [Example 9-4, 1-ethyl-3-((S)-1,1,1,5,5,5-hexafluoropentan-2-yl)-1-((R)-1-(5-methoxy-4-(4-methoxybenzo[d]oxazol-6-yl)pyridin-2-yl)ethyl)urea], in that order: 8.12 and 99.6%.
With `CCc1cc(-c2cc([C@@H](C)N(CC)C(=O)N[C@@H](CCC(F)(F)F)C(F)(F)F)ncc2OC)cc2ccnn12` [Example 9-5, 1-ethyl-1-((R)-1-(4-(7-ethylpyrazolo[1,5-a]pyridin-5-yl)-5-methoxypyridin-2-yl)ethyl)-3-((S)-1,1,1,5,5,5-hexafluoropentan-2-yl)urea], the pEC50 was 7.79 and the “% of maximum agonist effect (relative to Orexin A)” value amounted to 99.6%.
As to `CCN(C(=O)N[C@@H](CCC(F)(F)F)C(F)(F)F)[C@@H](c1cc(-c2cc(OC)c3ncn(C)c3c2)c(OC)cn1)C(F)(F)F` [Example 9-7, 1-ethyl-3-((S)-1,1,1,5,5,5-hexafluoropentan-2-yl)-1-((S)-2,2,2-trifluoro-1-(5-methoxy-4-(4-methoxy-1-methyl-1H-benzo[d]imidazol-6-yl)pyridin-2-yl)ethyl)urea], the pEC50 is 7.53 and the “% of maximum agonist effect (relative to Orexin A)” value is on record as 100.4%.
Take `CCN(C(=O)N[C@@H](CCC(F)(F)F)C(F)(F)F)[C@@H](c1cc(-c2cc(OC)n3nccc3n2)c(OC)cn1)C(F)(F)F` [Example 9-8, 1-ethyl-3-((S)-1,1,1,5,5,5-hexafluoropentan-2-yl)-1-((S)-2,2,2-trifluoro-1-(5-methoxy-4-(7-methoxypyrazolo[1,5-a]pyrimidin-5-yl)pyridin-2-yl)ethyl)urea]: the pEC50 is 7.36 and the “% of maximum agonist effect (relative to Orexin A)” value is on record as 99.5%.
Consider `CCN(C(=O)N[C@@H](CCC(F)(F)F)C(F)(F)F)[C@@H](c1cc(-c2cc(F)c3ncnn3c2)c(OC)cn1)C(F)(F)F` [Example 9-10, 1-ethyl-3-((S)-1,1,1,5,5,5-hexafluoropentan-2-yl)-1-((S)-2,2,2-trifluoro-1-(4-(8-fluoro-[1,2,4]triazolo[1,5-a]pyridin-6-yl)-5-methoxypyridin-2-yl)ethyl)urea], for which the pEC50 was 6.22 and the “% of maximum agonist effect (relative to Orexin A)” value turned out to be 97.1%.
With `CCN(C(=O)N[C@@H](CCC(F)(F)F)C(F)(F)F)[C@@H](c1cc(-c2nc(OC)c3nccn3n2)c(OC)cn1)C(F)(F)F` [Example 9-11, 1-ethyl-3-((S)-1,1,1,5,5,5-hexafluoropentan-2-yl)-1-((S)-2,2,2-trifluoro-1-(5-methoxy-4-(4-methoxyimidazo[2,1-f][1,2,4]triazin-2-yl)pyridin-2-yl)ethyl)urea], the pEC50 was 8.59 and the “% of maximum agonist effect (relative to Orexin A)” value was determined as 99.5%.
On to `CCN(C(=O)N[C@@H](CCC(F)(F)F)C(F)(F)F)[C@@H](c1cc(-c2cn3ccnc3c(OC)n2)c(OC)cn1)C(F)(F)F` [Example 10-1, 1-ethyl-3-((S)-1,1,1,5,5,5-hexafluoropentan-2-yl)-1-((S)-2,2,2-trifluoro-1-(5-methoxy-4-(8-methoxyimidazo[1,2-a]pyrazin-6-yl)pyridin-2-yl)ethyl)urea], for which the pEC50 was 8.96 and the “% of maximum agonist effect (relative to Orexin A)” value is 100.4%.
Turning to `CCN(C(=O)N[C@@H](CCC(F)(F)F)C(F)(F)F)[C@H](C)c1cc(-c2cn3ccnc3c(OC)n2)c(OC)nn1` [Example 10-3, 1-ethyl-3-((S)-1,1,1,5,5,5-hexafluoropentan-2-yl)-1-((R)-1-(6-methoxy-5-(8-methoxyimidazo[1,2-a]pyrazin-6-yl)pyridazin-3-yl)ethyl)urea], the pEC50 is 9.10 and the “% of maximum agonist effect (relative to Orexin A)” value amounted to 101.7%.
With `CCN(C(=O)N[C@@H](CCC(F)(F)F)C(F)(F)F)C(c1ncc(OC)c(-c2cn3ccnc3c(OC)n2)n1)C(F)(F)F` (stereo partly drawn) [Example 10-4, 1-ethyl-3-((S)-1,1,1,5,5,5-hexafluoropentan-2-yl)-1-(2,2,2-trifluoro-1-(5-methoxy-4-(8-methoxyimidazo[1,2-a]pyrazin-6-yl)pyrimidin-2-yl)ethyl)urea], the pEC50 was 8.89 and the “% of maximum agonist effect (relative to Orexin A)” value is 100.7%.
For `CCN(C(=O)N[C@@H](CCC(F)(F)F)C(F)(F)F)C(c1cnc(OC)c(-c2cn3ccnc3c(OC)n2)n1)C(F)(F)F` (stereo partly drawn) [Example 10-5, 1-ethyl-3-((S)-1,1,1,5,5,5-hexafluoropentan-2-yl)-1-(2,2,2-trifluoro-1-(5-methoxy-6-(8-methoxyimidazo[1,2-a]pyrazin-6-yl)pyrazin-2-yl)ethyl)urea], the pEC50 was 8.60 and the “% of maximum agonist effect (relative to Orexin A)” value amounted to 101.6%.
In the case of `CCN(C(=O)N[C@@H](CCC(F)(F)F)C(F)(F)F)C(c1cc(-c2cn3ccnc3c(OC)n2)c(OC)c(C)n1)C(F)(F)F` (stereo partly drawn) [Example 10-6, 1-ethyl-3-((S)-1,1,1,5,5,5-hexafluoropentan-2-yl)-1-(2,2,2-trifluoro-1-(5-methoxy-4-(8-methoxyimidazo[1,2-a]pyrazin-6-yl)-6-methylpyridin-2-yl)ethyl)urea], the pEC50 was 8.04 and the “% of maximum agonist effect (relative to Orexin A)” value came out at 98.9%.
Consider `CCN(C(=O)N[C@@H](CCC(F)(F)F)C(F)(F)F)C(c1cc(-c2cc(OC)c3nc(C#N)cn3c2)c(OC)cn1)C(F)(F)F` (stereo partly drawn) [Example 10-7, 1-(1-(4-(2-cyano-8-methoxyimidazo[1,2-a]pyridin-6-yl)-5-methoxypyridin-2-yl)-2,2,2-trifluoroethyl)-1-ethyl-3-((S)-1,1,1,5,5,5-hexafluoropentan-2-yl)urea], for which the pEC50 is 8.82 and the “% of maximum agonist effect (relative to Orexin A)” value amounted to 102.7%.
For `CCN(C(=O)N[C@@H](CCC(F)(F)F)C(F)(F)F)[C@@H](c1cc(-c2cc3scnc3c(OC)n2)c(OC)cn1)C(F)(F)F` [Example 10-8, 1-ethyl-3-((S)-1,1,1,5,5,5-hexafluoropentan-2-yl)-1-((S)-2,2,2-trifluoro-1-(5-methoxy-4-(4-methoxythiazolo[4,5-c]pyridin-6-yl)pyridin-2-yl)ethyl)urea], the pEC50 was 8.64 and the “% of maximum agonist effect (relative to Orexin A)” value was 100.7%.
